Earlier results as cited in article PMC5643362 (Acta Diabetologica, 2017).

Substance: Exendin-4
- Resistance to dipeptidyl peptidase IV (dipeptidyl peptidase IV): resistant
- Resistance to neural endopeptidase (neural endopeptidase): resistant
